Laboratory results: patent publication EP0418591B1 (priority 1989, dated 1991)
pIC50, pKi: −log10 of the molar value. Where two headings read alike, the source gives them in different places. Marks after values point to notes of the source that are not given here.

Experiments:
Cough in Guinea Pigs = test system: Cough in Guinea Pigs; set-up: species or system Dunkin Hartley guinea pigs; details: guinea pig, in vivo
[1] = molecular target: T1, Delta opiate binding sites (Rattus norvegicus, UniProt P33533); set-up: species or system Sprague-Dawley rats
T1 construct: from tissue; host or cells: rat brain minus cerebellum, twice-washed P2 membrane fraction

Mu opiate binding sites = molecular target: T2, Mu opiate binding sites (Rattus norvegicus, UniProt P33535); set-up: species or system Sprague-Dawley rats
T2 construct: from tissue; host or cells: rat brain minus cerebellum, twice-washed P2 membrane fraction
T2 sequence (P33535 whole entry): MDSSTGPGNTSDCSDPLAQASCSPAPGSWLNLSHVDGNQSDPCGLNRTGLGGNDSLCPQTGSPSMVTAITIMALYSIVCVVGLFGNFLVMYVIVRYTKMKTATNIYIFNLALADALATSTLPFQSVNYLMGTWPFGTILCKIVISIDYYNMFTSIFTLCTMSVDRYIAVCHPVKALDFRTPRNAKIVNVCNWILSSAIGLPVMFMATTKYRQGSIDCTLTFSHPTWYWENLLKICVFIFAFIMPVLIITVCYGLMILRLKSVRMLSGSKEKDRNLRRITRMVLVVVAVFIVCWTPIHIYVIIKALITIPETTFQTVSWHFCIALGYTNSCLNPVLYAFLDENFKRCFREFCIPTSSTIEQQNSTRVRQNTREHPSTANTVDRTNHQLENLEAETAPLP

T1 sequence (P33533 whole entry): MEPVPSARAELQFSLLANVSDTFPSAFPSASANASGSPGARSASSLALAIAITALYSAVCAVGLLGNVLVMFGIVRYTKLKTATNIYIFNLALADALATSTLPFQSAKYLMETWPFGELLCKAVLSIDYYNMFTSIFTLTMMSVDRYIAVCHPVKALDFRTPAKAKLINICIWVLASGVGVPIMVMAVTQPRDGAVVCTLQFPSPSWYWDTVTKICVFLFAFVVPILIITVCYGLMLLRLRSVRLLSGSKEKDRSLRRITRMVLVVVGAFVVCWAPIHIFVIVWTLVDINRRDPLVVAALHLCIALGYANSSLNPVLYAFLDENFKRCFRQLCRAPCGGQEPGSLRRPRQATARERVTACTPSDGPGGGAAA

Row | SMILES | inhibition of cough (Cough in Guinea Pigs) [%] | % Inhibition of Coughing 5 min (Cough in Guinea Pigs; po) | % Inhibition of Coughing 10 min (Cough in Guinea Pigs; po) | % Inhibition of Coughing 5 min (Cough in Guinea Pigs; sc) | % Inhibition of Coughing 10 min (Cough in Guinea Pigs; sc) | pIC50 ([1]; read-out: IC₅₀ Delta) | pKi ([1]; read-out: Ki Delta) | pIC50 (Mu opiate binding sites; read-out: IC₅₀ Mu) | pKi (Mu opiate binding sites; read-out: Ki Mu)
1 | COc1ccc2c3c1O[C@H]1[C@@H](O)C=C[C@H]4[C@@H](C2)N(C)CC[C@@]341 [(-)-codeine] | 46 | 42.7*** % | 38.7*** % | 46.2*** % | 46.1*** % |  |  |  | 
2 | CC(C)C[C@H](NC(=O)[C@H](Cc1ccccc1)NC(=O)CNC(=O)[C@H](NC(=O)[C@@H](N)Cc1ccc(O)cc1)[C@H](C)O)C(=O)N[C@H](C(=O)O)[C@@H](C)O [DTLET, D-Thr²-Leu-Enkephalin-Thr] |  |  |  |  |  | 8.57 | 8.92 | 6.74 | 6.98
